Entries after “also recorded” stand apart in the source; their conditions may differ.
Key:
[1] = system: Fetal rat neurons in primary cultures; assay: Effect on neurite outgrowth and neuron survival; format: cell-based; conditions: 10^−6 and 10^−7 M, incubation for 3 days, versus control group (FIG. 1)
Method: This experiment was conducted in accordance with the method of Luu, et al. (C. Girlanda-Junges, F. Keyling-Bilger, G. Schemitt & B. Luu, “Effect of Cyclohexenonic Long Chain Fatty Alcohols on Neurite Outgrowth. Study on Structure-Activity Relationship”, Tetrahedron, 54, 7735-77481998)). Fetal rat neurons in primary cultures were treated with Compound 1 at the concentrations of 10^−6 and 10^−7 M, followed by incubation for 3 days.

[2] = system: Human neuroblastoma cells, Lan-1; assay: Induction of proliferation, differentiation and apoptosis of neuroblastoma cells; format: cell-based; set-up: key to Apoptosis / Proliferation / Differentiation: ++++: Extremely strongly stimulated (reinforced).; +++: Very strongly stimulated (reinforced).; ++: Strongly stimulated (reinforced).; +: Stimulated (reinforced).; +/−: No change.; −: Decreased (weakened); conditions: for effects on induction of differentiation or apoptosis versus proliferation: Lan-1 cells, summary of Table 1
From the text: Human neuroblastoma cells, Lan-1 (Lan-1: a human neuroblastoma cell line with M1 and M2 muscarinic receptors conjugated with intracellular Ca^2+) were used to investigate the effects of the present compounds on the induction of proliferation, differentiation and apoptosis.

human blood cells = assay: Preventive effect on hemolysis in human blood cells induced by free radicals; format: cell-based; conditions: compared with control group (FIG. 2)
Method: An experiment was conducted in accordance with the method of D. Blache. FASEB J. et al. (E. Bourdon, N. Loreau & D. Blache. FABES J. “Glucose and free radicals impair the antioxidant properties of serum albumin”, 13, 233-244(1999)). The time required for 50% hemolysis (HT50) was measured and the extension of the time required for HT50 compared with that of a control group was plotted on a graph. In this experiment, Vitamin E was employed as a positive control.

SMILES | Apoptosis ([2]; Day 1, 0.1 μM) | Differentiation ([2]; Day 1, 0.1 μM) | Proliferation ([2]; Day 1, 0.1 μM) | Apoptosis ([2]; Day 1, 10 μM) | Differentiation ([2]; Day 1, 10 μM) | Proliferation ([2]; Day 1, 10 μM) | Apoptosis ([2]; Day 1, 100 μM) | Differentiation ([2]; Day 1, 100 μM) | Proliferation ([2]; Day 1, 100 μM) | Apoptosis ([2]; Day 2, 0.1 μM) | Differentiation ([2]; Day 2, 0.1 μM) | Proliferation ([2]; Day 2, 0.1 μM) | Apoptosis ([2]; Day 2, 10 μM) | Differentiation ([2]; Day 2, 10 μM) | Proliferation ([2]; Day 2, 10 μM) | Apoptosis ([2]; Day 2, 100 μM) | Differentiation ([2]; Day 2, 100 μM) | Proliferation ([2]; Day 2, 100 μM) | Apoptosis ([2]; Day 5, 0.1 μM) | Differentiation ([2]; Day 5, 0.1 μM) | other results
OCCCCCCCCCCCCCCCCc1c[nH]c2ccccc12 [Compound 1, 3-(16-hydroxyhexadecyl)indole] | − | +/− | + | +/− | ++ | + | + | +++ | +/− | − | +/− | ++ | +/− | +++ | + | + | ++++ | − | − | +/− | proportion of the neurons with neurites of 50 μm or longer [1]: higher in the treated group than in the control group; Proliferation ([2]; Day 5, 0.1 μM): +/−; Apoptosis ([2]; Day 5, 10 μM): ++; Differentiation ([2]; Day 5, 10 μM): +++; Proliferation ([2]; Day 5, 10 μM): +/−; Apoptosis ([2]; Day 5, 100 μM): +++; Differentiation ([2]; Day 5, 100 μM): +; Proliferation ([2]; Day 5, 100 μM): −; Apoptosis ([2]; Day 7, 0.1 μM): +/−; Differentiation ([2]; Day 7, 0.1 μM): +; Proliferation ([2]; Day 7, 0.1 μM): +/−; Apoptosis ([2]; Day 7, 10 μM): ++; Differentiation ([2]; Day 7, 10 μM): ++++; Proliferation ([2]; Day 7, 10 μM): +/−; Apoptosis ([2]; Day 7, 100 μM): +++; Differentiation ([2]; Day 7, 100 μM): ++; Proliferation ([2]; Day 7, 100 μM): −; effects on induction of differentiation or apoptosis versus proliferation [2]: stronger effects on induction of differentiation or apoptosis of neuroblastoma cells rather than on proliferation; melting point: 79 to 80 °C; extension of the time required for 50% hemolysis (HT50) (human blood cells): extended HT50
OCCc1c[nH]c2ccccc12 [Compound 2, 3-(2-hydroxyethyl)indole] |  |  |  |  |  |  |  |  |  |  |  |  |  |  |  |  |  |  |  |  | extension of the time required for 50% hemolysis (HT50) (human blood cells): extended HT50
OCCCCCCCCCCc1c[nH]c2ccccc12 [Compound 3, 3-(10-hydroxydecyl)indole] | − | + | + | − | +++ | +/− | ++ | + | − | − | + | + | + | ++ | +/− | ++ | + | +/− | +/− | − | Proliferation ([2]; Day 5, 0.1 μM): +; Apoptosis ([2]; Day 5, 10 μM): +; Differentiation ([2]; Day 5, 10 μM): ++; Proliferation ([2]; Day 5, 10 μM): +/−; Apoptosis ([2]; Day 5, 100 μM): ++; Differentiation ([2]; Day 5, 100 μM): +++; Proliferation ([2]; Day 5, 100 μM): +/−; Apoptosis ([2]; Day 7, 0.1 μM): +/−; Differentiation ([2]; Day 7, 0.1 μM): +/−; Proliferation ([2]; Day 7, 0.1 μM): ++; Apoptosis ([2]; Day 7, 10 μM): +; Differentiation ([2]; Day 7, 10 μM): +++; Proliferation ([2]; Day 7, 10 μM): +/−; Apoptosis ([2]; Day 7, 100 μM): ++++; effects on induction of differentiation or apoptosis versus proliferation [2]: stronger effects on induction of differentiation or apoptosis of neuroblastoma cells rather than on proliferation
OCCCCCCCCCCCc1c[nH]c2ccccc12 [Compound 4, 3-(11-hydroxyundecyl)indole] | − | − | ++ | − | ++ | + | +++ | + | +/− | − | + | + | + | ++ | +/− | +++ | − | − | − | +/− | Proliferation ([2]; Day 5, 0.1 μM): +/−; Apoptosis ([2]; Day 5, 10 μM): −; Differentiation ([2]; Day 5, 10 μM): ++; Proliferation ([2]; Day 5, 10 μM): +/−; Apoptosis ([2]; Day 5, 100 μM): +; Differentiation ([2]; Day 5, 100 μM): ++++; Proliferation ([2]; Day 5, 100 μM): +; Apoptosis ([2]; Day 7, 0.1 μM): −; Differentiation ([2]; Day 7, 0.1 μM): +/−; Proliferation ([2]; Day 7, 0.1 μM): ++; Apoptosis ([2]; Day 7, 10 μM): +/−; Differentiation ([2]; Day 7, 10 μM): ++; Proliferation ([2]; Day 7, 10 μM): +/−; Apoptosis ([2]; Day 7, 100 μM): ++++; effects on induction of differentiation or apoptosis versus proliferation [2]: stronger effects on induction of differentiation or apoptosis of neuroblastoma cells rather than on proliferation; extension of the time required for 50% hemolysis (HT50) (human blood cells): extended HT50; also recorded: strong effect
